In patent US11813340B2, “PSMA targeted radiohalogenated urea-polyaminocarboxylates for cancer radiotherapy” (The Johns Hopkins University, priority 2018, dated 2023):
Like-named read-outs stand apart in the source and are kept apart here.

Legend:
[1] = tested on: PiP (tumor) and Flu (tumor); assay: Biodistribution of [125I]VK-03-03 and [125I]VK-03-03-Lu in mice (Table 9); type: in vivo
[2] = tested on: PSMA + PC3-PIP and PSMA-PC3-flu flank xenografts; assay: Biodistribution of At-211 labeled PSMA inhibitors with and without cold blocking agent (Tables 6-8); type: in vivo, athymic mice; conditions: mice
[3] = tested on: PSMA + PC3-PIP and PSMA-PC3-flu flank xenografts; conditions: no blocker, inhibitors reported in WO2017070482, cited from earlier work
[4] = tested on: preclinical models of human prostate cancer (PC); conditions: Kiess et al., 2016, cited from earlier work
[5] = tested on: PSMA + PC3-PIP and PSMA-PC3-flu flank xenografts; conditions: without cold blocking agent
Method: Final compounds were purified by HPLC. […] Organs were harvested 1, 4, and 24 h post-injection (n=5 per time point).

[6] = tested on: PSMA+PC3-PIP and PSMA-PC3-flu flank xenografts; assay: Biodistribution of [125I/211At]2 and 3 with and without co-injection of DCIBzL (Example 6); type: in vivo, athymic mice; conditions: no co-injection
From the text: Final compounds were purified by HPLC.

O=C(O)CC[C@H](NC(=O)N[C@@H](CCCCN(Cc1ccc(Br)cc1)C(=O)CCCCNC(=O)c1cc([125I])cc(C(=O)NCCNC(=O)CN2CCN(CC(=O)O)CCN(CC(=O)O)CCN(CC(=O)O)CC2)c1)C(=O)O)C(=O)O [[^125I]VK-03-03]
Biodistribution Data, Flu (tumor) ([1]; 1 H): 2.0 ± 0.7 | Biodistribution Data, PiP (tumor) ([1]; 1 H): 44.7 ± 12.2 | Biodistribution Data, bladder ([1]; 1 H): 5.0 ± 2.9 | Biodistribution Data, blood ([1]; 1 H): 1.6 ± 0.26 | Biodistribution Data, fat ([1]; 1 H): 3.2 ± 0.7 | Biodistribution Data, heart ([1]; 1 H): 1.6 ± 0.5 | Biodistribution Data, kidney ([1]; 1 H): 132 ± 18.5 | Biodistribution Data, lacrimal gland ([1]; 1 H): 25.4 ± 4.1 | Biodistribution Data, large intestine ([1]; 1 H): 1.2 ± 0.06 | Biodistribution Data, liver ([1]; 1 H): 0.9 ± 0.15 | Biodistribution Data, lung ([1]; 1 H): 4.5 ± 0.6 | Biodistribution Data, muscle ([1]; 1 H): 1.0 ± 0.2 | Biodistribution Data, pancreas ([1]; 1 H): 1.8 ± 0.27 | Biodistribution Data, salivary gland ([1]; 1 H): 5.0 ± 0.86 | Biodistribution Data, small intestine ([1]; 1 H): 0.76 ± 0.13 | Biodistribution Data, spleen ([1]; 1 H): 70.0 ± 20.4 | Biodistribution Data, stomach ([1]; 1 H): 1.0 ± 0.12 | Biodistribution Data, Flu (tumor) ([1]; 4 H): 1.2 ± 0.28 | Biodistribution Data, PiP (tumor) ([1]; 4 H): 57.0 ± 15.9 | Biodistribution Data, bladder ([1]; 4 H): 2.4 ± 0.5 | Biodistribution Data, blood ([1]; 4 H): 0.49 ± 0.08 | Biodistribution Data, fat ([1]; 4 H): 4.1 ± 1.5 | Biodistribution Data, heart ([1]; 4 H): 0.9 ± 0.03 | Biodistribution Data, kidney ([1]; 4 H): 165 ± 14.4 | Biodistribution Data, lacrimal gland ([1]; 4 H): 15.8 ± 4.9 | Biodistribution Data, large intestine ([1]; 4 H): 0.58 ± 0.19 | Biodistribution Data, liver ([1]; 4 H): 0.4 ± 0.2 | Biodistribution Data, lung ([1]; 4 H): 2.3 ± 0.3 | Biodistribution Data, muscle ([1]; 4 H): 0.64 ± 0.22 | Biodistribution Data, pancreas ([1]; 4 H): 1.5 ± 0.05 | Biodistribution Data, salivary gland ([1]; 4 H): 3.5 ± 0.4 | Biodistribution Data, small intestine ([1]; 4 H): 0.37 ± 0.08 | Biodistribution Data, spleen ([1]; 4 H): 37.4 ± 8.9 | Biodistribution Data, stomach ([1]; 4 H): 0.95 ± 0.7 | Biodistribution Data, Flu (tumor) ([1]; 24 H): 0.2 ± 0.09 | Biodistribution Data, PiP (tumor) ([1]; 24 H): 54.1 ± 6.3 | Biodistribution Data, bladder ([1]; 24 H): 1.6 ± 0.75 | Biodistribution Data, blood ([1]; 24 H): 0.09 ± 0.02 | Biodistribution Data, fat ([1]; 24 H): 0.37 ± 0.28 | Biodistribution Data, heart ([1]; 24 H): 0.17 ± 0.08 | Biodistribution Data, kidney ([1]; 24 H): 141 ± 18.3 | Biodistribution Data, lacrimal gland ([1]; 24 H): 2.6 ± 0.76 | Biodistribution Data, large intestine ([1]; 24 H): 0.11 ± 0.06 | Biodistribution Data, liver ([1]; 24 H): 0.09 ± 0.02 | Biodistribution Data, lung ([1]; 24 H): 0.58 ± 0.2 | Biodistribution Data, muscle ([1]; 24 H): 0.1 ± 0.05 | Biodistribution Data, pancreas ([1]; 24 H): 0.26 ± 0.07 | Biodistribution Data, salivary gland ([1]; 24 H): 0.6 ± 0.16 | Biodistribution Data, small intestine ([1]; 24 H): 0.08 ± 0.03 | Biodistribution Data, spleen ([1]; 24 H): 4.9 ± 2.7 | Biodistribution Data, stomach ([1]; 24 H): 0.18 ± 0.06 | clearance of radioactivity in the kidneys ([1]; mouse, in vivo): does not clear over time | tumor uptake ([1]; mouse, in vivo): high and prolonged tumor uptake

O=C(O)CC[C@H](NC(=O)N[C@@H](CCCCN(Cc1ccc([211At])cc1)C(=O)CCCCNC(=O)CN1CCN(CC(=O)O)CCN(CC(=O)O)CCN(CC(=O)O)CC1)C(=O)O)C(=O)O [[^211At]VK-02-90]
radioactivity in the stomach [2]: very low | stability in-vivo [2]: stable in-vivo

O=C(O)CC[C@H](NC(=O)NC(CCCCNC(=O)c1ccc([211At])cc1)C(=O)O)C(=O)O (stereo partly drawn) [YC-I-27, (2S)-2-(3-(1-Carboxy-5-(4-211At-Astatobenzamido)Pentyl)Ureido)-Pentanedioic Acid]
Biodistribution, Blood ([3]; 1 Hour): 1.7 ± 0.3 % injected dose/g | Biodistribution, Flu tumor ([3]; 1 Hour): 2.2 ± 0.4 % injected dose/g | Biodistribution, PIP tumor ([3]; 1 Hour): 17.9 ± 3.0 % injected dose/g | Biodistribution, Spleen ([3]; 1 Hour): 29 ± 10 % injected dose/g | Biodistribution, Stomach ([3]; 1 Hour): 10.1 ± 1.7 % injected dose/g | Biodistribution, kidney ([3]; 1 Hour): 71 ± 12 % injected dose/g | Biodistribution, thyroid ([3]; 1 Hour): 3.7 ± 1.1 % injected dose/g | Biodistribution, Blood ([3]; 4 H): 1.0 ± 0.1 % injected dose/g | Biodistribution, Flu tumor ([3]; 4 H): 1.5 ± 0.2 % injected dose/g | Biodistribution, Spleen ([3]; 4 H): 20.3 ± 3.6 % injected dose/g | Biodistribution, kidney ([3]; 4 H): 60 ± 12 % injected dose/g | Biodistribution, thyroid ([3]; 4 H): 3.8 ± 1.2 % injected dose/g | Biodistribution, Blood ([3]; 21-24 Hour (footnote a)): 0.5 ± 0.05 % injected dose/g | Biodistribution, Flu tumor ([3]; 21-24 Hour (footnote a)): 1.2 ± 0.2 % injected dose/g | Biodistribution, PIP tumor ([3]; 21-24 Hour (footnote a)): 31.1 ± 9.8 % injected dose/g | Biodistribution, Spleen ([3]; 21-24 Hour (footnote a)): 8.0 ± 2.0 % injected dose/g | Biodistribution, Stomach ([3]; 21-24 Hour (footnote a)): 9.4 ± 3.0 % injected dose/g | Biodistribution, kidney ([3]; 21-24 Hour (footnote a)): 57.4 ± 7.4 % injected dose/g | Biodistribution, thyroid ([3]; 21-24 Hour (footnote a)): 6.5 ± 2.0 % injected dose/g | efficacy as PSMA-targeted radiopharmaceutical therapy (RPT) agent [4]: high efficacy | renal toxicity ([4]; due to high uptake and long retention in kidney): caused renal failure

O=C(O)CC[C@H](NC(=O)N[C@@H](CCCCN(Cc1ccc([125I])cc1)C(=O)CCCCNC(=O)CN1CCN(CC(=O)O)CCN(CC(=O)O)CCN(CC(=O)O)CC1)C(=O)O)C(=O)O [[^125I]VK-02-90]
Biodistribution, Blood ([5]; 1 H): 1.1 ± 0.3 % injected dose/g | Biodistribution, Flu tumor ([5]; 1 H): 1.4 ± 0.6 % injected dose/g | Biodistribution, Kidneys ([5]; 1 H): 194 ± 25 % injected dose/g | Biodistribution, Lacrimal glands ([5]; 1 H): 17.4 ± 6.0 % injected dose/g | Biodistribution, Pip (tumor) ([5]; 1 H): 58 ± 14 % injected dose/g | Biodistribution, Salivary glands ([5]; 1 H): 5.1 ± 3.4 % injected dose/g | Biodistribution, Spleen ([5]; 1 H): 40.2 ± 16.4 % injected dose/g | Biodistribution, Stomach ([5]; 1 H): 1.1 ± 0.3 % injected dose/g | Biodistribution, Blood ([5]; 4 H): 0.2 ± 0.03 % injected dose/g | Biodistribution, Flu tumor ([5]; 4 H): 0.3 ± 0.06 % injected dose/g | Biodistribution, Kidneys ([5]; 4 H): 162 ± 36 % injected dose/g | Biodistribution, Lacrimal glands ([5]; 4 H): 1.9 ± 0.45 % injected dose/g | Biodistribution, Pip (tumor) ([5]; 4 H): 38 ± 13 % injected dose/g | Biodistribution, Salivary glands ([5]; 4 H): 0.7 ± 0.2 % injected dose/g | Biodistribution, Spleen ([5]; 4 H): 4.7 ± 1.2 % injected dose/g | Biodistribution, Stomach ([5]; 4 H): 0.4 ± 0.2 % injected dose/g | Biodistribution, Blood ([5]; 24 H): 0.02 ± 0.01 % injected dose/g | Biodistribution, Flu tumor ([5]; 24 H): 0.04 ± 0.02 % injected dose/g | Biodistribution, Kidneys ([5]; 24 H): 30.6 ± 14.0 % injected dose/g | Biodistribution, Lacrimal glands ([5]; 24 H): 0.5 ± 0.2 % injected dose/g | Biodistribution, Pip (tumor) ([5]; 24 H): 51 ± 7 % injected dose/g | Biodistribution, Salivary glands ([5]; 24 H): 0.3 ± 0.3 % injected dose/g | Biodistribution, Spleen ([5]; 24 H): 0.7 ± 0.4 % injected dose/g | Biodistribution, Stomach ([5]; 24 H): 0.05 ± 0.03 % injected dose/g | retention of radioactivity, lacrimal glands (LG) ([6]; 1h): 17.4±6.0 % ID/g | retention of radioactivity, salivary glands (SG) ([6]; 1h): 5.1±3.4 % ID/g | retention of radioactivity, kidneys (K) ([6]; 4 h): 162±36 % ID/g | retention of radioactivity, kidneys (K) ([6]; 24 h): 30.6±14.0 % ID/g
